Converted amounts (≈) assume the structure as drawn.
Columns and labels:
HCT-116 = test: Growth inhibition of human HCT116 cells after 72 hrs by MTT assay; assay type: functional; settings: HCT-116, 72 h
Aurora kinase A = molecular target: T1, Aurora kinase A (Homo sapiens, UniProt O14965)
T1 sequence (O14965 whole entry): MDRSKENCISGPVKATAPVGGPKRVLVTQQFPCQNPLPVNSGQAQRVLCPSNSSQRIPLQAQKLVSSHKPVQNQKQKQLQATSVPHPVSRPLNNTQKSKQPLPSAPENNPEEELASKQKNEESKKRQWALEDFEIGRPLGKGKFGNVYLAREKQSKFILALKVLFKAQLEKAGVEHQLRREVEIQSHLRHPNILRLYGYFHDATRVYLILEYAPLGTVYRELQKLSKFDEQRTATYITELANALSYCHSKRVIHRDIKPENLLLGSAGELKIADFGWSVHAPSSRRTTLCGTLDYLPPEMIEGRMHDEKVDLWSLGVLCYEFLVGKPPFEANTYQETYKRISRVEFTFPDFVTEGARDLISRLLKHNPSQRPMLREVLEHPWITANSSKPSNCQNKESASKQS
Description: Inhibition of human recombinant Aurora A expressed in baculovirus system

[1] = Metabolic stability in CD1 mouse liver microsomes assessed as compound remaining at 10 uM after 30 mins by LC-MS/MS analysis; assay type: ADME, Microsome; settings: read-out: Stability
[2] = Oral bioavailability in BALB/c mouse at 5 mg/kg; assay type: ADME, organism-based; settings: in vivo
[3] = Aqueous solubility of the compound; assay type: physicochemical; settings: buffer
[4] = molecular target: T2, Ephrin type-B receptor 4 (Homo sapiens) (UniProt P54760); test: Inhibition of EPHB4 at 1 uM
T2 sequence (whole entry): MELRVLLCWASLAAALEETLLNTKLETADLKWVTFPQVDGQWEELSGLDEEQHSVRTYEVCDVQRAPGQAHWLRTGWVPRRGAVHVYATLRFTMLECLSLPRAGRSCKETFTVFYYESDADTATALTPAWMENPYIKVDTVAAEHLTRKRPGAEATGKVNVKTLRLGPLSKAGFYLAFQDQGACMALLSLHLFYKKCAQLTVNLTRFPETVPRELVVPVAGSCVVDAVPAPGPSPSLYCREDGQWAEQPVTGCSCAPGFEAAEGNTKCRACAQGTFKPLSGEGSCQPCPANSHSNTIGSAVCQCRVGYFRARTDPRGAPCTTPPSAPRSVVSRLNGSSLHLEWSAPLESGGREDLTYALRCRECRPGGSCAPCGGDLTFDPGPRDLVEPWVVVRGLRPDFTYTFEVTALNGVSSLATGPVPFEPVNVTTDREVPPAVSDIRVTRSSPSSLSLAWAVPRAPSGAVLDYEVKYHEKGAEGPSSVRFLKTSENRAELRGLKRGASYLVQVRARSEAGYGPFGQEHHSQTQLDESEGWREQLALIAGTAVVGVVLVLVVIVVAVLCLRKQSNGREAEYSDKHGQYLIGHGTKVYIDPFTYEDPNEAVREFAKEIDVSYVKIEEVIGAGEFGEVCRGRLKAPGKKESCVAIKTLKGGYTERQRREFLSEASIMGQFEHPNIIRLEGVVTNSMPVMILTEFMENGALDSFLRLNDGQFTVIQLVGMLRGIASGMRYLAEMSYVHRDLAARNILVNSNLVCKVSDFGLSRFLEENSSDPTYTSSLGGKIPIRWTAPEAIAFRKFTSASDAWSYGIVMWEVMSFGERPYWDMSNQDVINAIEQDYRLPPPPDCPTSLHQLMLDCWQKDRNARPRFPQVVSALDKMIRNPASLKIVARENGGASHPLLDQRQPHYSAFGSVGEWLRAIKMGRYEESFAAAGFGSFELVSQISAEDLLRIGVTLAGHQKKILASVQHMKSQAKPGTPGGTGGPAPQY

[5] = molecular target: T3, Aurora kinase A (Homo sapiens) (UniProt O14965); test: Inhibition of Aurora A at 1 uM
T3 sequence (whole entry): T1 sequence (O14965 whole entry)

[6] = molecular target: Vascular endothelial growth factor receptor 2 (Homo sapiens) (UniProt P35968); test: Inhibition of KDR at 1 uM
hERG (KCNH2) = hERG (KCNH2) (Homo sapiens, UniProt Q12809); test: Inhibition of human ERG at 10 uM
[7] = molecular target: Platelet-derived growth factor receptor beta (Homo sapiens) (UniProt P09619); test: Inhibition of PDGFRbeta at 1 uM
[8] = molecular target: High affinity nerve growth factor receptor (Homo sapiens) (UniProt P04629); test: Inhibition of NTRK1 at 1 uM
[9] = molecular target: Angiopoietin-1 receptor (Homo sapiens) (UniProt Q02763); test: Inhibition of TEK at 1 uM
[10] = molecular target: Hepatocyte growth factor receptor (Homo sapiens) (UniProt P08581); test: Inhibition of MET at 1 uM
[11] = molecular target: Vascular endothelial growth factor receptor 1 (Homo sapiens) (UniProt P17948); test: Inhibition of FLT1 at 1 uM
[12] = molecular target: Tyrosine-protein kinase Lck (Homo sapiens) (UniProt P06239); test: Inhibition of LCK at 1 uM
[13] = molecular target: Aurora kinase B (Homo sapiens) (UniProt Q96GD4); test: Inhibition of Aurora B at 1 uM
Chain of Aurora kinase B (Homo sapiens) (Q96GD4 whole entry): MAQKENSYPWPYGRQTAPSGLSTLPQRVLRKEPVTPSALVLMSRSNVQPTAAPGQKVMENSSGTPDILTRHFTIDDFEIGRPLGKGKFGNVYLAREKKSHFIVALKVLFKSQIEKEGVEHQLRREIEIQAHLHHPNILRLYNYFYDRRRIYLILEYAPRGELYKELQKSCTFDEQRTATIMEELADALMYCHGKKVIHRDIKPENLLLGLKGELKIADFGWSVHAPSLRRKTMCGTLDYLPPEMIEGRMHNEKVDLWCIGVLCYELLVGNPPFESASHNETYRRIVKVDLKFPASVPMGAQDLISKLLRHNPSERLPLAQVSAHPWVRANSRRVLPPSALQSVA

Chain of Angiopoietin-1 receptor (Homo sapiens) (Q02763 whole entry): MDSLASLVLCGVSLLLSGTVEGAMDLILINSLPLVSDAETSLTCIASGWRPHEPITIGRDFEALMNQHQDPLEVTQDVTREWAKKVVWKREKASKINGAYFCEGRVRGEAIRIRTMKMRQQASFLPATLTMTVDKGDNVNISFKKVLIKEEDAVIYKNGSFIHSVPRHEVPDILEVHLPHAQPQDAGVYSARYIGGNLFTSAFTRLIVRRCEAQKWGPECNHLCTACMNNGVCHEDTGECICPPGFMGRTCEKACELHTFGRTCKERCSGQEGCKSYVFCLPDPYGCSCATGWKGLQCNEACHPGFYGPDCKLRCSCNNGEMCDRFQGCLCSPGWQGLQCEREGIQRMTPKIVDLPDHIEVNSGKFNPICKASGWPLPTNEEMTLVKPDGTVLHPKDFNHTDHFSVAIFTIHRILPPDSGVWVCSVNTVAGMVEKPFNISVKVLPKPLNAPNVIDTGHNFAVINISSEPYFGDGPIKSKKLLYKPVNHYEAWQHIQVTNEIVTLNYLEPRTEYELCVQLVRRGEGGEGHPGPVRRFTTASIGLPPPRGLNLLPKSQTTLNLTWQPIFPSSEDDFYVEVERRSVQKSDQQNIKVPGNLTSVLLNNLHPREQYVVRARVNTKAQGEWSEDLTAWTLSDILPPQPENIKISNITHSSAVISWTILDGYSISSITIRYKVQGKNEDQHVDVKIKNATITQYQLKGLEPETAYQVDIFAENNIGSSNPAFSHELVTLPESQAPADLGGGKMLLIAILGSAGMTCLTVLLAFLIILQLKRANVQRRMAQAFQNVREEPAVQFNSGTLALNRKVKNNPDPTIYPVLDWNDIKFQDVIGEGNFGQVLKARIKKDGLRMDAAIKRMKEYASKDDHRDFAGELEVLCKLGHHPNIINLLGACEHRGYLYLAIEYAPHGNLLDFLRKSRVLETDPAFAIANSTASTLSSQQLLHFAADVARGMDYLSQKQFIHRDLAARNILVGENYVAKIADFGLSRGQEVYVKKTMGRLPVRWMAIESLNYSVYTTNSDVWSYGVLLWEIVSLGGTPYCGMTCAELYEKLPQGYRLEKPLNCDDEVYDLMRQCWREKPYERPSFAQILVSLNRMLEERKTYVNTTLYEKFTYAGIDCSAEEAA
Chain of Platelet-derived growth factor receptor beta (Homo sapiens) (P09619 whole entry): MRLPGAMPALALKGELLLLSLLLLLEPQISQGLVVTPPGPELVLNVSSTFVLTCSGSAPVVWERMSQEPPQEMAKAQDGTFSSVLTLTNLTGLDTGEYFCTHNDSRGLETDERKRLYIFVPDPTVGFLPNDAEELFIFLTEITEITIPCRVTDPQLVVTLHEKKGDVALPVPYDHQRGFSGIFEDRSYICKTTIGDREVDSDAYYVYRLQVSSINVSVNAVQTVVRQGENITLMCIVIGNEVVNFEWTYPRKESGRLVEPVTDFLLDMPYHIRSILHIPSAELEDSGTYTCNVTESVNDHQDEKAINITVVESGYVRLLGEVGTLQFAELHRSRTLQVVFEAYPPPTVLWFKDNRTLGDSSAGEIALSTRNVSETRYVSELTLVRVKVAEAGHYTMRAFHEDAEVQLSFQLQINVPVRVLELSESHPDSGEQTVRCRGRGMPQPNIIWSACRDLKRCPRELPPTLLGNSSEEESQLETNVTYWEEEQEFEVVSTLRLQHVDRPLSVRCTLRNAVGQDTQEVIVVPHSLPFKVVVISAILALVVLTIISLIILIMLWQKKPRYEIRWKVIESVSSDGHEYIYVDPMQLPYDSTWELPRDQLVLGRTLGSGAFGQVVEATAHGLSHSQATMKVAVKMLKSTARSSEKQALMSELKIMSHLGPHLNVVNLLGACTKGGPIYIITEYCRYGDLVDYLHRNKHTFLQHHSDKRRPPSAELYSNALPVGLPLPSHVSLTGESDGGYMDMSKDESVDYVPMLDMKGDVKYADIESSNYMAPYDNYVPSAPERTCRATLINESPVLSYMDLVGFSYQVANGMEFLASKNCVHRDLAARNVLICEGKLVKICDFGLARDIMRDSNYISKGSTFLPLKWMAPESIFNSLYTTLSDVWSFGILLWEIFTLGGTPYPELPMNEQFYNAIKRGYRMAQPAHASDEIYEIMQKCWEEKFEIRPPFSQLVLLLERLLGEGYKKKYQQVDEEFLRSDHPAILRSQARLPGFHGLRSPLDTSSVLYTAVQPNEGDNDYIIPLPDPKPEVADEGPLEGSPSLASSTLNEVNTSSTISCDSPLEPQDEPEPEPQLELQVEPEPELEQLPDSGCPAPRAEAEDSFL
Chain of hERG (KCNH2) (Q12809 whole entry): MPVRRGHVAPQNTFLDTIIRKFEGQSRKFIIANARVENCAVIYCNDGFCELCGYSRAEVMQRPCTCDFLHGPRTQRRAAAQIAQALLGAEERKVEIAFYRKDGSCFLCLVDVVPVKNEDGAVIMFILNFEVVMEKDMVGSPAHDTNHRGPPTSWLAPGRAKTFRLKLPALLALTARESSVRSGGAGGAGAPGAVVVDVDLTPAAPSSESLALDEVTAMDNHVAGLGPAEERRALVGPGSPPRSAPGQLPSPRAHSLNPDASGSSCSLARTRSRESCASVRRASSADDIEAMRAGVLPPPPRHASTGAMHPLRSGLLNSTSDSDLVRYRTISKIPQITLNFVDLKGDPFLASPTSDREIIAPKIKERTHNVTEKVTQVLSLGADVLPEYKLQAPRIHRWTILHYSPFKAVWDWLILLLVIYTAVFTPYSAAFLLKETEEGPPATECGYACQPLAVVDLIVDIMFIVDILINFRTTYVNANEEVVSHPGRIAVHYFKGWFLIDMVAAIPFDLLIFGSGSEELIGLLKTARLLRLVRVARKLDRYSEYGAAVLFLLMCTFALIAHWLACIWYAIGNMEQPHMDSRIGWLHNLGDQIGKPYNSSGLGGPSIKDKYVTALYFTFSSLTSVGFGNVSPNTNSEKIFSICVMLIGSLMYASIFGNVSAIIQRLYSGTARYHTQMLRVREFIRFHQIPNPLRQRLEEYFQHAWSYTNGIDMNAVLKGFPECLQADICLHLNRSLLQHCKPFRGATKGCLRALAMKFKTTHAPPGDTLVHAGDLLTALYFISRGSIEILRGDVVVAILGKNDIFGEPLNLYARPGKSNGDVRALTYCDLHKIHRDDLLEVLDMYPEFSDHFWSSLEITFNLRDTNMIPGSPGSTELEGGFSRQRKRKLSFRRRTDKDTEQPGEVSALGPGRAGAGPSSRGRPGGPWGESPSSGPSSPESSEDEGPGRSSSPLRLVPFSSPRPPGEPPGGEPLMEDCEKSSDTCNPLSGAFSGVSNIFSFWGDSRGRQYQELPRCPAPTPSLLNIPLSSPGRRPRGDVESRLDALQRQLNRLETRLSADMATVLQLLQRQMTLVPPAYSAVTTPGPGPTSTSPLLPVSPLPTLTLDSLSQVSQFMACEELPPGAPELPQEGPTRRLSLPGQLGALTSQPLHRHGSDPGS
Chain of Vascular endothelial growth factor receptor 1 (Homo sapiens) (P17948 whole entry): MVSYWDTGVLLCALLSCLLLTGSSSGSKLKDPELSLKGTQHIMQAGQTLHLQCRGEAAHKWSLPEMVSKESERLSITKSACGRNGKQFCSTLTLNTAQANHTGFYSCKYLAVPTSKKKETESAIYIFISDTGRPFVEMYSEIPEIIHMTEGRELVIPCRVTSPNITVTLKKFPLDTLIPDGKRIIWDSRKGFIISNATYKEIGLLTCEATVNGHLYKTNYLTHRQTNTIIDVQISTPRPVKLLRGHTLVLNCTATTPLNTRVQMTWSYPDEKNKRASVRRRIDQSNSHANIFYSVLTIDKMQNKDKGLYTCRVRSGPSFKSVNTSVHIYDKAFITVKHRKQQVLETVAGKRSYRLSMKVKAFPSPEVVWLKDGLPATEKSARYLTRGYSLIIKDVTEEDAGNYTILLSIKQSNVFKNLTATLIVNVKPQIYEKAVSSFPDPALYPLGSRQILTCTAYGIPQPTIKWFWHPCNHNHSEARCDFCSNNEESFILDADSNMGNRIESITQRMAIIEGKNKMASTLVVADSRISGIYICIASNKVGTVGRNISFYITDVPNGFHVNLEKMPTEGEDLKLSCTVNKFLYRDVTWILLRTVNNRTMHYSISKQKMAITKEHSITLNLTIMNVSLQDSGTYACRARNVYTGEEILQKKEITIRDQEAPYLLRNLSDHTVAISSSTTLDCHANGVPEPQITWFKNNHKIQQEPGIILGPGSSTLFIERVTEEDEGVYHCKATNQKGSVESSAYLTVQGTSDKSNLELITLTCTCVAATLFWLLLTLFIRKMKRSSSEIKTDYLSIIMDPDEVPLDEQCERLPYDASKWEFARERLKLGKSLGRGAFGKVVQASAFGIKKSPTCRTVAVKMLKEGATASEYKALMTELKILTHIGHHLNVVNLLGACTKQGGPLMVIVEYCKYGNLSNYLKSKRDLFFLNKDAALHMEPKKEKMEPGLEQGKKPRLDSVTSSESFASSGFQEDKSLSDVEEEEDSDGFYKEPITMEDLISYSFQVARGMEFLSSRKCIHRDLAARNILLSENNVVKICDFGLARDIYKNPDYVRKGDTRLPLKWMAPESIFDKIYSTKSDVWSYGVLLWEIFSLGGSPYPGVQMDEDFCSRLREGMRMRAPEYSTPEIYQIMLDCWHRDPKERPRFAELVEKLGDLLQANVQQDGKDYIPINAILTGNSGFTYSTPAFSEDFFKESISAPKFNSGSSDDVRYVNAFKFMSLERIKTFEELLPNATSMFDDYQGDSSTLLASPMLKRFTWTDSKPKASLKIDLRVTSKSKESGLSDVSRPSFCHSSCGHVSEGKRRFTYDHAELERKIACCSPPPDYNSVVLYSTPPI

SMILES: O=C(CN1CCN(c2c(Cl)cnc3[nH]c(-c4ccc(CN5CCOCC5)cc4)nc23)CC1)Nc1nccs1
- GI50 (HCT-116): 360 nM
- IC50 (Aurora kinase A): 3 nM

SMILES: Cc1cc(CN2CCN(c3c(Cl)cnc4nc(-c5ccc(OCCO)cc5)[nH]c34)CC2)no1
- GI50 (HCT-116): 450 nM
- remaining at 0.5 h, 10 µM [1]: > 50%
- IC50 (Aurora kinase A): 20 nM

SMILES: CN(C)c1ccc(-c2nc3c(N4CCNCC4)c(Br)cnc3[nH]2)cc1
- GI50 (HCT-116): 950 nM
- IC50 (Aurora kinase A): 365 nM

SMILES: COc1ccc(-c2nc3c(N4CCN(Cc5cncnc5)CC4)c(Br)cnc3[nH]2)cc1
- GI50 (HCT-116): 400 nM
- IC50 (Aurora kinase A): 8 nM

SMILES: CN(C)c1ccc(-c2nc3c(N4CCN(CC(=O)Nc5cccnc5)CC4)c(Br)cnc3[nH]2)cc1
- GI50 (HCT-116): 1650 nM
- IC50 (Aurora kinase A): 118 nM

SMILES: Brc1cnc2[nH]c(-c3ccc(CN4CCOCC4)cc3)nc2c1N1CCN(Cc2cccnc2)CC1
- GI50 (HCT-116): 280 nM
- bioavailability [2]: 13%
- solubility [3]: 30 µg/mL (≈ 54.7 µM)

SMILES: CN(C)c1ccc(-c2nc3c(N4CCN(CC(=O)Nc5ccccc5)CC4)c(Cl)cnc3[nH]2)cc1
- GI50 (HCT-116): 2550 nM
- IC50 (Aurora kinase A): 115 nM

SMILES: CC(c1ccncc1)N1CCN(c2c(Br)cnc3[nH]c(-c4ccc(N(C)C)cc4)nc23)CC1 (stereo unspecified)
- GI50 (HCT-116): 900 nM
- IC50 (Aurora kinase A): 85 nM

SMILES: Clc1ccc(CN2CCN(c3c(Br)cnc4[nH]c(-c5ccc(CN6CCOCC6)cc5)nc34)CC2)cc1
- inhibition [4]: 4%
- inhibition [5]: 98%
- inhibition [6]: 35%
- inhibition at 10 µM (hERG (KCNH2)): 53%
- inhibition [7]: 15%
- inhibition [8]: 33%
- GI50 (HCT-116): 600 nM
- inhibition [9]: 5%
- inhibition [10]: 3%
- inhibition [11]: 35%
- inhibition [12]: 8%
- inhibition [13]: 60%

SMILES: CN(C)Cc1ccc(-c2nc3c(N4CCN(CC(=O)Nc5nccs5)CC4)c(Br)cnc3[nH]2)cc1
- GI50 (HCT-116): 1000 nM
- IC50 (Aurora kinase A): 16 nM

SMILES: Cc1cc(CN2CCN(c3c(Br)cnc4[nH]c(-c5ccc(N6CCNCC6)cc5)nc34)CC2)no1
- GI50 (HCT-116): 100 nM
- remaining at 0.5 h, 10 µM [1]: > 50%

SMILES: Brc1cnc2[nH]c(-c3ccc(CN4CCOCC4)cc3)nc2c1N1CCN(Cc2cncnc2)CC1
- GI50 (HCT-116): 420 nM
- IC50 (Aurora kinase A): 6 nM

SMILES: COc1ccc(-c2nc3c(N4CCN(Cc5nccn5C)CC4)c(Br)cnc3[nH]2)cc1
- GI50 (HCT-116): 1500 nM
- IC50 (Aurora kinase A): 32 nM

SMILES: COc1ccc(-c2nc3ncc(C4CC4)c(N4CCN(CC(=O)Nc5nccs5)CC4)c3[nH]2)cc1
- GI50 (HCT-116): 2500 nM
- IC50 (Aurora kinase A): 53 nM

SMILES: CN(C)c1ccc(-c2nc3c(N4CCN(C(=O)Nc5ccccc5)CC4)c(Br)cnc3[nH]2)cc1
- GI50 (HCT-116): 10000 nM
- IC50 (Aurora kinase A): 277 nM

SMILES: Cc1cc(CN2CCN(c3c(Br)cnc4[nH]c(-c5ccc(CN)cc5)nc34)CC2)no1
- GI50 (HCT-116): 240 nM
- remaining at 0.5 h, 10 µM [1]: > 50%
- IC50 (Aurora kinase A): 10 nM

SMILES: CC(c1ccccc1)N1CCN(c2c(Cl)cnc3[nH]c(-c4ccc(N(C)C)cc4)nc23)CC1 (stereo unspecified)
- GI50 (HCT-116): 900 nM
- IC50 (Aurora kinase A): 79 nM

SMILES: Cc1cc(CN2CCN(c3c(Br)cnc4[nH]c(-c5ccc(OCCO)cc5)nc34)CC2)no1
- GI50 (HCT-116): 280 nM
- remaining at 0.5 h, 10 µM [1]: > 50%
- IC50 (Aurora kinase A): 30 nM
- solubility [3]: 10 µg/mL (≈ 19.5 µM)

SMILES: O=C(CN1CCN(c2c(Br)cnc3[nH]c(-c4ccccc4)nc23)CC1)Nc1nccs1
- GI50 (HCT-116): 3000 nM
- IC50 (Aurora kinase A): 81 nM

SMILES: COc1ccc(-c2nc3c(N4CCN(Cc5cccnc5)CC4)c(Br)cnc3[nH]2)cc1
- GI50 (HCT-116): 1150 nM
- IC50 (Aurora kinase A): 9 nM

SMILES: CN(C)c1ccc(-c2nc3c(N4CCN(S(=O)(=O)c5ccccc5)CC4)c(Br)cnc3[nH]2)cc1
- IC50 (Aurora kinase A): 178 nM

SMILES: CN(C)c1ccc(-c2nc3c(N4CCN(CC(=O)Nc5nccs5)CC4)c(Br)cnc3[nH]2)cc1
- GI50 (HCT-116): 480 nM
- IC50 (Aurora kinase A): 55 nM

SMILES: CN(C)c1ccc(-c2nc3c(N4CCN(CC(=O)Nc5nccs5)CC4)c(C#N)cnc3[nH]2)cc1
- GI50 (HCT-116): 1030 nM
- IC50 (Aurora kinase A): 50 nM

SMILES: Cc1cc(CN2CCN(c3c(Cl)cnc4[nH]c(-c5ccc(Cn6cccn6)cc5)nc34)CC2)no1
- GI50 (HCT-116): 450 nM

SMILES: CN(C)c1ccc(-c2nc3c(N4CCN(Cc5ccncc5)CC4)c(Br)cnc3[nH]2)cc1
- GI50 (HCT-116): 700 nM
- IC50 (Aurora kinase A): 55 nM

SMILES: CN(C)c1ccc(-c2nc3c(N4CCN(CC(=O)Nc5cccc(Cl)c5)CC4)c(Cl)cnc3[nH]2)cc1
- GI50 (HCT-116): 2670 nM
- IC50 (Aurora kinase A): 75 nM

SMILES: COc1ccc(-c2nc3c(N4CCN(CC(=O)Nc5nccs5)CC4)c(Cl)cnc3[nH]2)cc1
- GI50 (HCT-116): 900 nM
- IC50 (Aurora kinase A): 52 nM

SMILES: CC(C)CN1CCN(c2c(Br)cnc3[nH]c(-c4ccc(N(C)C)cc4)nc23)CC1
- GI50 (HCT-116): 970 nM
- IC50 (Aurora kinase A): 210 nM

SMILES: COc1ccc(-c2nc3c(N4CCN(Cc5cscn5)CC4)c(Br)cnc3[nH]2)cc1
- GI50 (HCT-116): 320 nM
- remaining at 0.5 h, 10 µM [1]: 45%
- IC50 (Aurora kinase A): 4 nM

SMILES: Brc1cnc2[nH]c(-c3ccc(CN4CCOCC4)cc3)nc2c1N1CCN(Cc2cscn2)CC1
- IC50 (Aurora kinase A): 6 nM

SMILES: Cn1ccnc1CN1CCN(c2c(Br)cnc3[nH]c(-c4ccc(CN5CCOCC5)cc4)nc23)CC1
- GI50 (HCT-116): 1500 nM
- IC50 (Aurora kinase A): 30 nM

SMILES: COc1ccc(-c2nc3c(N4CCN(CC5CC5)CC4)c(Br)cnc3[nH]2)cc1
- GI50 (HCT-116): 830 nM
- IC50 (Aurora kinase A): 650 nM

SMILES: CN(C)c1ccc(-c2nc3c(N4CCN(c5ccccc5)CC4)c(Br)cnc3[nH]2)cc1
- IC50 (Aurora kinase A): 258 nM

SMILES: Cc1cc(CN2CCN(c3c(Cl)cnc4nc(-c5ccc(CN)cc5)[nH]c34)CC2)no1
- GI50 (HCT-116): 650 nM
- remaining at 0.5 h, 10 µM [1]: > 50%
- IC50 (Aurora kinase A): 55 nM

SMILES: Cc1cc(CN2CCN(c3c(Br)cnc4[nH]c(-c5ccc(CN6CCOCC6)cc5)nc34)CC2)no1
- GI50 (HCT-116): 60 nM
- IC50 (Aurora kinase A): 2 nM

SMILES: Cc1cc(CN2CCN(c3c(Br)cnc4nc(-c5ccc(CN6CCNCC6)cc5)[nH]c34)CC2)no1
- GI50 (HCT-116): 78 nM
- remaining at 0.5 h, 10 µM [1]: > 50%
- IC50 (Aurora kinase A): 10 nM
- solubility [3]: 870 µg/mL (≈ 1580 µM)

SMILES: Cc1cc(CN2CCN(c3c(Br)cnc4nc(-c5ccc(CN(C)C)cc5)[nH]c34)CC2)no1
- GI50 (HCT-116): 230 nM
- remaining at 0.5 h, 10 µM [1]: > 50%
- IC50 (Aurora kinase A): 14 nM

SMILES: Cc1cc(CN2CCN(c3c(Br)cnc4[nH]c(-c5ccc(Cn6cccn6)cc5)nc34)CC2)no1
- GI50 (HCT-116): 120 nM

Reference: ChEMBL document CHEMBL1155446, “Imidazo[4,5-b]pyridine derivatives as inhibitors of Aurora kinases: lead optimization studies toward the identification of an orally bioavailable preclinical development candidate” (J Med Chem, 2010)
